Reference: US20230285317A1, “DILUENTS, STANDARDIZATION AGENTS AND VISCOSITY CONTROL FOR CANNABINOIDS FORMULATIONS AND METHODS THEREOF” (Scientific Holdings, LLC, priority 2022, published 2023)

Tests used:
[1] = Long-term solubility and oil stability of cannabinoids in CBC at room temperature; type: physicochemical; settings: solid cannabinoid in CBC
Experimental: In an example embodiment, the solubility of a number of solid cannabinoid isolates in concentrations of 10-80 percent by mass were evaluated in CBC, a viscous oil at room-temperature. Solubility is assessed at 25 degrees (Celsius), after heating to 35 degrees (Celsius), after heating to 70 degrees (Celsius), and after heating to 100 degrees (Celsius). The solubility of cannabinoids with CBC is then observed at room temperature at various time points after formulation to determine long-term solubility and oil stability.
The samples were then heated at an appropriate temperature for 15 total minutes in a water bath and then if any of the CBD remained solid, the vial would be heated for 15 minutes at the next temperature level. A glass thermometer was used to observe and record the temperature. All eight vials corresponding to the eight concentrations of CBD in CBC became a homogeneous mass upon 6-8 minutes heating at 70 degrees (Celsius).
The samples were then heated at an appropriate temperature for 15 total minutes in a water bath and then if any of the CBG remained solid the vial would be heated for 15 minutes at the next temperature level. A glass thermometer was used to observe and record the temperature. […] The viscosity of the solution containing 50% CBG (Vial 13) and 60% CBG (Vial 14) increased upon standing for 35 to 40 minutes at room temperature.
The samples were then heated at an appropriate temperature for 15 total minutes in a water bath and then if any of the CBDA remained solid the vial would be heated for 15 minutes at the next temperature level. A glass thermometer was used to observe and record the temperature. […] But no solids were evident after 4 minutes at 100 degrees (Celsius). […] Vials 20 through 24, containing […] CBDA respectively in 10 weight percent increments, were homogenous liquids after 7 minutes at 100° C. The samples containing 30% CBDA to 60% CBDA became very viscous but remained liquid after 20 minutes at room temperature.
After day 1, the samples containing 10% to 80% CBD appeared more viscous but remained homogeneous oils. […]

[2] = Solubility of CBG in bisabolol; type: physicochemical
Text: Roughly 10% of the original amount of CBG seemed to remain crystalline in the sample containing 30% CBG. Approximately 20% the original amount of CBG remained crystalline in the sample containing 40% CBG. Approximately 30% of the original amount of CBG remained solid in the sample containing 50% CBG and approximately 40% of the original mass of CBG remained solid in the solution containing 60% CBG.

| SMILES | concentration up to which CBC gives a flowable and stable oil [1] | concentration of CBG in a flowable and stable oil made with bisabolol [2] |
| --- | --- | --- |
| CCCCCc1cc(O)c(C/C=C(\C)CCC=C(C)C)c(O)c1 [CBG, cannabigerol] | ≤ 40% | greater than 60% |
| C=C(C)[C@@H]1CCC(C)=C[C@H]1c1c(O)cc(CCCCC)c(C(=O)O)c1O [CBDA, cannabidiolic acid] | ≤ 20% | – |
| C=C(C)[C@@H]1CCC(C)=C[C@H]1c1c(O)cc(CCCCC)cc1O [CBD, cannabidiol, reference compound] | ≤ 80% | – |
